The values below come from US20060228405A1, “Phospholipid-based pharmaceutical formulations and methods for producing and using same” (Conforma Therapeutics Corporation, priority 2005, published 2006).

For data set [1] the following is noted: mean +/- SD; cited from earlier work.
Data set [2] has as its system rat tail vein. Kind of data set: Intravenous injection and tolerance, rat tail vein. Type of data set: in vivo. The conditions noted are these: phospholipid dispersion; rats. As to the method:
(§1) Pharmacokinetics for the solution formulation and the dispersion formulation were very similar. The method of the invention was also used to prepare dispersion formulations with the hydrochloride and phosphate salts of Compound 237. […] Dispersion formulations were also prepared using water soluble and slightly water soluble derivatives of geldanamycin. Specifically, similar dispersions containing DMAG were similarly formulated and well-tolerated upon tail vein injection into mice and rats.

The subject of data set [3] is tail vein. As to the kind of experiment: Intravenous injection and tolerance, tail vein injection into mice. The data set is classed as in vivo. To be noted: phospholipid dispersion. How it is done:
as §1

Data set [4] in a line: Solvent stability of low melt form of 17-AAG slurried in H2O:EtOH (90:10). The data set is classed as physicochemical. The conditions noted are these: crystals slurried in H2O:EtOH (90:10). As to the method: 17-AAG may be prepared from geldanamycin via reaction with allyamine in dry THF under a nitrogen atmosphere. The crude product may be purified by slurrying in H2O:EtOH (90:10), and the washed crystals obtained have a melting point of 206-212° C. by capillary melting point technique. A second product of 17-AAG can be obtained by dissolving and recrystallizing the crude product from 2-propyl alcohol (isopropanol). This second 17-AAG product has a melting point between 147-153° C. by capillary melting point technique. […] See Examples 1-2 for details of the preparation of the two polymorphic forms of 17-AAG. In addition to the high melt and low melt forms, it is well known that 17-AAG has an amorphous form.
The 17-AAG product from Example 2 was dissolved in 400 mL of H2O:EtOH (90:10) at 25° C. Filltration followed by aging at 45° C. for 8 hr gave […] (68.6 mmol) of 17-AAG as purple crystals (95% yield, >99% pure by HPLC monitored at 254 nm). m.p.=[…]. ^1H NMR and HPLC are consistent with the desired product.

With `C=CCNC1=C2C[C@@H](C)C[C@H](OC)[C@H](O)[C@@H](C)/C=C(\C)[C@H](OC(N)=O)[C@@H](OC)/C=C\C=C(/C)C(=O)NC(=CC1=O)C2=O` [Compound 17-AAG, 17-allylamino-17-desmethyl-geldanamycin], the steady-state volume in data set [1] is on record as 86.6+34.6 L/m^2.

In the case of `CO[C@H]1/C=C\C=C(/C)C(=O)NC2=CC(=O)C(NCCN(C)C)=C(C[C@@H](C)C[C@H](OC)[C@H](O)[C@@H](C)/C=C(\C)[C@@H]1OC(N)=O)C2=O` [DMAG, 17-N,N-dimethylaminoethylaminogeldanamycin], the “tolerance upon tail vein injection” value in data set [2] and in data set [3] was “well-tolerated” throughout.

For `C=CCNC1=C2C[C@@H](C)C[C@H](OC)[C@H](O)[C@@H](C)/C=C(\C)[C@H](OC(N)=O)[C@@H](OC)/C=C\C=C(/C)C(=O)NC(=CC1=O)C2=O` [low melt form of 17-AAG, 17-allylamino-17-desmethyl-geldanamycin], the “conversion of low melt form to high melt form” value in data set [4] is recorded as “no conversion to the high melt form was observed”.
